Test results as given in patent publication US20040063661A1, “Treatment of statin side effects” (priority 2000, published 2004).
Several values for one entry are separate records, joined by “and”; a condition that tells them apart may be missing. Equal entries are not always repeated. Marks after values point to notes of the source that are not given here.

What was measured:
Type in all cases: in vivo, human
chronic fatigue syndrome = assay: Case report: self assessed well being, day to day tasks and muscle pain in a chronic fatigue syndrome patient on Q10 (Example 2); settings: for Feeling of Well Being / Absence of Muscle Pain / Heavy Work (1 hour) / Light Work/Walking / Sedentary Work / Work: teacher / Wellness Score (out of 60): Q10 2×50 mg per day; for Feeling of Well Being: self rated 0-10 (10 = best); for Absence of Muscle Pain: self rated 0-10 (10 = complete absence of pain); for Wellness Score (out of 60): sum of the six self ratings
Experimental: The patient had suffered for a number of years from chronic fatigue syndrome. The condition was severe enough such that they were unable to pursue their teaching career and day to day tasks were generally performed with a general sense of fatigue and muscle pain. Muscle pain was generally controlled with over the counter (ie. non-prescription) analgesics containing 500 mg paracetamol and 8 mg codeine phosphate, 2-4 tablets per day. Table 1 provides a summary of the patient's self assessed levels of general sense of well being, ability to perform day to day tasks and level of (or relative absence of) muscle pain during a dosing regimen of 2×50 mg per day of Q10(50 mg taken each at breakfast and dinner). Levels were rated by the patient on a scale of 0-10, with 0 representing severe incapacity or pain and 10 representing the complete absence of pain or fatigue/excellent performance. FIG. 1 depicts the self assessed (absence of) pain levels for the patient, over a period of 30 days, on a scale of […], where 0 is severe pain and 10 relates to an absence of pain (wellness). On day 1 the patient commenced taking 100 mg of Q10 per day until day 10 when the dosage was increased to 200 mg per day

creatine kinase = assay: Pilot clinical study Q10: blood creatine kinase concentration (measure of muscle trauma)
Experimental: (§1) Commencing at WK(0) and continuing through the study the patients were asked to take a daily dose of 300 mg of Coenzyme Q10 (Q10), which was administered as […] sof gel capsules (commercially available from R. P. Scherer), morning and evening.

[1] = tested on: statin induced muscle pain; assay: Pilot clinical study Q10: McGill Pain Questionnaire (PRI, PPI); settings: for PRI (Pain Rating Index), first score / PRI (Pain Rating Index), second score: patients on statin therapy; for PRI (Pain Rating Index), first score / PRI (Pain Rating Index), second score / PPI (Present Pain Intensity): one line per patient
Excerpt: (§2) Table 2 outlines data for four patients (numbered #1-#4) undergoing statin therapy for treatment of hypercholesterolemia and who had reported suffering from varying levels of muscular pain and fatigue. This study is ongoing, but the results below follow the study with these four patients from week minus1 (WK(-1)) to week plus 4 (WK(+4)). Patients were either contacted or attended the clinic at weeks -1, 0, +1, +2 and +4. At the clinic on the first week (WK(-1)) details of the patients' statin medication were recorded and daily doses were noted. Patients were also scored for pain using the McGill Pain Questionnaire (Melzack, R., 1975 “The McGill Pain Questionnaire: Major Properties and Scoring Methods”. Pain 1:277-299, the disclosure of which is included herein in its entirety by way of reference) scales for Pain Rating Index (PRI) and Present Pain Intensity (PPI). In the PRI index, which comprises two scores, higher scores indicate increasing levels of pain. In the PPI index present pain is given a score of 0 to 5, where 0 represents no pain and 5 represents excruciating pain. Patients were also scored at WK(-1) for fatigue using the Fatigue Impact Scale (Fisk, J. D. et al, 1994, “Measuring the functional impact of fatigue: Initial Validation of the Fatigue Impact Scale”, Clinical Infectious Disease, 18 (Suppl 1):[…]-83, the disclosure of which is included herein in its entirety by way of reference). Questionnaires to determine PRI, PPI and FIS scores were conducted thereafter at weeks +1, +2 and +4. At weeks +1 and +2 the patients were contacted by telephone and were asked to mail their self assessment questionnaires to the clinic. Commencing at WK(0) and continuing through the study the patients were asked to take a daily dose of 300 mg of Coenzyme Q10 (Q10), which was administered as […] sof gel capsules (commercially available from R. P. Scherer), morning and evening.

muscle pain = assay: Case report: Coenzyme Q10 in a patient with unexplained muscle pain and viral infections (Example 1)
Excerpt: The patient had suffered for a number of years from unexplained muscle pain which started in the legs and gradually spread to other skeletal muscles. During the worst of the symptoms, the patient was unable to raise their arms above their head and was unable to drive a car. Walking was also difficult. […] The patient was eventually diagnosed as suffering from a number of viral infections: cytomegalovirus (CMV), Epstein-Barr virus (EBV) and hepatitis A. The patient was started on a regimen of 150 mg per day of Coenzyme Q10. […] The improvement was reported as permanent provided that the patient kept taking Q10.

statin induced fatigue = assay: Pilot clinical study Q10: Fatigue Impact Scale (FIS); settings: for FIS (Fatigue Impact Scale): one line per patient
Excerpt: as §2

alanine aminotransferase = assay: Pilot clinical study Q10: blood alanine aminotransferase concentration (measure of liver damage)
Experimental: as §1

[2] = Pilot clinical study Q10: blood Q10 level (patient compliance); settings: one line per patient
Experimental: as §1

[3] = tested on: serum cholesterol, HDL-cholesterol or LDL-cholesterol and triglyceride levels; assay: Pilot clinical study Q10: serum lipids levels under statin therapy; settings: patients #1-#4; 300 mg Q10 daily; WK(0) vs WK(+4)
Experimental: as §1

[4] = Day 1, self rated 0-10 (10 = excellent performance)
[5] = Day 2, self rated 0-10 (10 = excellent performance)
[6] = Day 3, self rated 0-10 (10 = excellent performance)
[7] = Day 4, self rated 0-10 (10 = excellent performance)
[8] = Day 5, self rated 0-10 (10 = excellent performance)
[9] = Week 2, self rated 0-10 (10 = excellent performance)
[10] = Week 12, self rated 0-10 (10 = excellent performance)
[11] = 300 mg Q10 daily to WK(+4), a few patients
[12] = WK(+1), 300 mg Q10 daily from WK(0)
[13] = WK(+2), 300 mg Q10 daily from WK(0)
[14] = WK(+4), 300 mg Q10 daily from WK(0)
[15] = 150 mg per day of Coenzyme Q10, within several days

## COC1=C(OC)C(=O)C(C/C=C(\C)CC/C=C(\C)CC/C=C(\C)CC/C=C(\C)CC/C=C(\C)CC/C=C(\C)CC/C=C(\C)CC/C=C(\C)CC/C=C(\C)CCC=C(C)C)=C(C)C1=O [Q10, Coenzyme Q10]
Chronic fatigue syndrome; 30 day period, 100 mg of Q10 per day from day 1, 200 mg per day from day 10
  self assessed (absence of) pain levels, FIG. 1: increasing absence of muscle pain
Chronic fatigue syndrome; Day 1
  Feeling of Well Being: 4
  Wellness Score (out of 60): 14
Chronic fatigue syndrome; Day 1, patient required 2x analgesic tablets
  Absence of Muscle Pain: 3*
Chronic fatigue syndrome; [4]
  Heavy Work (1 hour): 0
  Light Work/Walking: 4
  Sedentary Work: 3
  Work: teacher: 0
Chronic fatigue syndrome; Day 2
  Feeling of Well Being: 4
  Wellness Score (out of 60): 14
Chronic fatigue syndrome; Day 2, patient required 2 × 2 (4) analgesic tablets
  Absence of Muscle Pain: 3**
Chronic fatigue syndrome; [5]
  Heavy Work (1 hour): 0
  Light Work/Walking: 4
  Sedentary Work: 3
  Work: teacher: 0
Chronic fatigue syndrome; Day 3
  Feeling of Well Being: 5
  Absence of Muscle Pain: 7
  Wellness Score (out of 60): 25
Chronic fatigue syndrome; [6]
  Light Work/Walking: 6
  Sedentary Work: 4
  Work: teacher: 0
Chronic fatigue syndrome; Day 3, self rated 0-10, patient performed only ½ hour heavy work
  Heavy Work (1 hour): 3***
Chronic fatigue syndrome; Day 4
  Feeling of Well Being: 6
  Absence of Muscle Pain: 7
  Wellness Score (out of 60): 27
Chronic fatigue syndrome; [7]
  Light Work/Walking: 6
  Sedentary Work: 5
  Work: teacher: 0
Chronic fatigue syndrome; Day 4, self rated 0-10, patient performed only ½ hour heavy work
  Heavy Work (1 hour): 3***
Chronic fatigue syndrome; Day 5
  Feeling of Well Being: 7
  Absence of Muscle Pain: 7
  Wellness Score (out of 60): 30
Chronic fatigue syndrome; [8]
  Light Work/Walking: 7
  Sedentary Work: 6
  Work: teacher: 0
Chronic fatigue syndrome; Day 5, self rated 0-10, patient performed only ½ hour heavy work
  Heavy Work (1 hour): 3***
Chronic fatigue syndrome; Week 2
  Feeling of Well Being: 7
  Absence of Muscle Pain: 7
  Wellness Score (out of 60): 36
Chronic fatigue syndrome; [9]
  Heavy Work (1 hour): 5
  Light Work/Walking: 7
  Sedentary Work: 7
  Work: teacher: 3
Chronic fatigue syndrome; Week 12
  Feeling of Well Being: 9
  Absence of Muscle Pain: 9
  Wellness Score (out of 60): 52
Chronic fatigue syndrome; [10]
  Heavy Work (1 hour): 8
  Light Work/Walking: 9
  Sedentary Work: 9
  Work: teacher: 8
Creatine kinase; WK(0), baseline before Q10, normal range 0-200, one line per patient
  CK (creatine kinase concentration): 175 units/L and 69 units/L and 39 units/L and 160 units/L
Creatine kinase; WK(+4), 300 mg Q10 daily from WK(0), normal range 0-200, one line per patient
  CK (creatine kinase concentration): 127 units/L and 78 units/L and 32 units/L and 148 units/L
[1]; [11]
  change in PRI scores (overall statement): Marginal decreases
[1]; [12]
  PRI (Pain Rating Index), first score: 22 and 0 and 48 and 19
  PRI (Pain Rating Index), second score: 10 and 0 and 21 and 7
[1]; WK(+1), 300 mg Q10 daily from WK(0), score 0 to 5
  PPI (Present Pain Intensity): 2 and 0 and 3 and 1
[1]; [13]
  PRI (Pain Rating Index), first score: 25 and 9 and 54 and 10
  PRI (Pain Rating Index), second score: 11 and 6 (2×) and 23
[1]; WK(+2), 300 mg Q10 daily from WK(0), score 0 to 5
  PPI (Present Pain Intensity): 2 (3×) and 1
[1]; [14]
  PRI (Pain Rating Index), first score: 8 and 4 and 46 and 9
  PRI (Pain Rating Index), second score: 4 and 1 and 20 and 5
[1]; WK(+4), 300 mg Q10 daily from WK(0), score 0 to 5
  PPI (Present Pain Intensity): 2 (3×) and 1
[1]; WK(−1), baseline before Q10
  PRI (Pain Rating Index), first score: 15 and 10 and 69 and 12
  PRI (Pain Rating Index), second score: 5 (2×) and 3 and 30
[1]; WK(−1), baseline before Q10, score 0 to 5 (5 = excruciating pain)
  PPI (Present Pain Intensity): 2
Muscle pain; [15]
  general sense of well being (patient report): general sense of well being has improved
  muscle pain (patient report): muscle pain had subsided noticeably
Muscle pain; treatment recommenced
  pain after the patient recommenced the Q10 treatment: the pain diminished within a short period
Muscle pain; treatment stopped on one occasion
  muscle pain after the patient stopped taking the Q10: the muscle pain returned
Statin induced fatigue; [11]
  change in FIS scores (overall statement): Marginal decreases
Statin induced fatigue; [12]
  FIS (Fatigue Impact Scale): 42 and 19 and 91 and 18
Statin induced fatigue; [13]
  FIS (Fatigue Impact Scale): 47 and 44 and 90 and 16
Statin induced fatigue; [14]
  FIS (Fatigue Impact Scale): 43 and 6 and 90 and 16
Statin induced fatigue; WK(−1), baseline before Q10, patients on statin therapy
  FIS (Fatigue Impact Scale): 48 and 39 and 104 and 15
Alanine aminotransferase; WK(0), baseline before Q10, normal range 0-40, one line per patient
  ALT (alanine aminotransferase concentration): 31 units/L and 14 units/L and 33 units/L
Alanine aminotransferase; WK(+4), 300 mg Q10 daily from WK(0), normal range 0-40, one line per patient
  ALT (alanine aminotransferase concentration): 25 units/L and 11 units/L and 19 units/L and 35 units/L
[2]; WK(0), baseline before Q10
  Q10 (blood level): 0.59 µg/mL and 0.46 µg/mL and 1.39 µg/mL
[2]; [14]
  Q10 (blood level): 2.42 µg/mL and 2.49 µg/mL and 1.92 µg/mL and 2.22 µg/mL
[3]
  effect on statin therapy with respect to serum cholesterol, HDL-cholesterol or LDL-cholesterol and triglyceride levels: did not significantly affect statin therapy
